These results are taken from ChEMBL document CHEMBL4706555, “Synthesis of biphenyl oxazole derivatives via Suzuki coupling and biological evaluations as nucleotide pyrophosphatase/phosphodiesterase-1 and -3 inhibitors” (Eur J Med Chem, 2020).

Experiment [1] has as its target T1, Ectonucleotide pyrophosphatase/phosphodiesterase family member 1 (Homo sapiens, UniProt P22413).
T1 sequence (P22413 whole entry): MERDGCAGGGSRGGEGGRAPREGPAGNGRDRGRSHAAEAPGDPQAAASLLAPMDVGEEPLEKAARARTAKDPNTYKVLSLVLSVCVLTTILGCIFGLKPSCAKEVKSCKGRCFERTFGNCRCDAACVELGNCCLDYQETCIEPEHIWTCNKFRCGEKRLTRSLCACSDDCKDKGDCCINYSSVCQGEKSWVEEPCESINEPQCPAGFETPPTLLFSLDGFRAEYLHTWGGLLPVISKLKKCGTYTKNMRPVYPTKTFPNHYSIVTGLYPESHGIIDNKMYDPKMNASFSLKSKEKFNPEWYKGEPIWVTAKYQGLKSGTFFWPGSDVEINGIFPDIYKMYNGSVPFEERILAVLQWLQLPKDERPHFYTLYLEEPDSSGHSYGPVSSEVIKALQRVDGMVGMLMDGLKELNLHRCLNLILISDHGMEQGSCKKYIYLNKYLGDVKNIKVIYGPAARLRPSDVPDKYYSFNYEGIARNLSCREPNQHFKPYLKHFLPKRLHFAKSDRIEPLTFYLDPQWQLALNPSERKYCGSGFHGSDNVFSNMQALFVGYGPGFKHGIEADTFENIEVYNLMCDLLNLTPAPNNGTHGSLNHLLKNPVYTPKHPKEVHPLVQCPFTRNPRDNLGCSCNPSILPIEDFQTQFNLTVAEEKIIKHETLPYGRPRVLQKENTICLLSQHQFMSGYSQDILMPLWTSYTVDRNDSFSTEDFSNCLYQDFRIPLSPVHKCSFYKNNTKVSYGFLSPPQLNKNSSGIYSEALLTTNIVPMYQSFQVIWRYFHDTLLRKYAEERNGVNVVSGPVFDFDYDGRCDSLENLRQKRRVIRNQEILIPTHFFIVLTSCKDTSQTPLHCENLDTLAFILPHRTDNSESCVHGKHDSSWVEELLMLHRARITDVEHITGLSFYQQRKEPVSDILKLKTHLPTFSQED
The experiment is described as follows: Inhibition of human recombinant NPP1 expressed in COS-7 cell membrane […] using p-nitrophenyl thymidine monophosphate substrate incubated for 35 mins by spectrophotometric analysis. Format: cell membranes.

Experiment [2] has as its target T2, Ectonucleotide pyrophosphatase/phosphodiesterase family member 3 (Homo sapiens, UniProt O14638).
T2 sequence (O14638 whole entry): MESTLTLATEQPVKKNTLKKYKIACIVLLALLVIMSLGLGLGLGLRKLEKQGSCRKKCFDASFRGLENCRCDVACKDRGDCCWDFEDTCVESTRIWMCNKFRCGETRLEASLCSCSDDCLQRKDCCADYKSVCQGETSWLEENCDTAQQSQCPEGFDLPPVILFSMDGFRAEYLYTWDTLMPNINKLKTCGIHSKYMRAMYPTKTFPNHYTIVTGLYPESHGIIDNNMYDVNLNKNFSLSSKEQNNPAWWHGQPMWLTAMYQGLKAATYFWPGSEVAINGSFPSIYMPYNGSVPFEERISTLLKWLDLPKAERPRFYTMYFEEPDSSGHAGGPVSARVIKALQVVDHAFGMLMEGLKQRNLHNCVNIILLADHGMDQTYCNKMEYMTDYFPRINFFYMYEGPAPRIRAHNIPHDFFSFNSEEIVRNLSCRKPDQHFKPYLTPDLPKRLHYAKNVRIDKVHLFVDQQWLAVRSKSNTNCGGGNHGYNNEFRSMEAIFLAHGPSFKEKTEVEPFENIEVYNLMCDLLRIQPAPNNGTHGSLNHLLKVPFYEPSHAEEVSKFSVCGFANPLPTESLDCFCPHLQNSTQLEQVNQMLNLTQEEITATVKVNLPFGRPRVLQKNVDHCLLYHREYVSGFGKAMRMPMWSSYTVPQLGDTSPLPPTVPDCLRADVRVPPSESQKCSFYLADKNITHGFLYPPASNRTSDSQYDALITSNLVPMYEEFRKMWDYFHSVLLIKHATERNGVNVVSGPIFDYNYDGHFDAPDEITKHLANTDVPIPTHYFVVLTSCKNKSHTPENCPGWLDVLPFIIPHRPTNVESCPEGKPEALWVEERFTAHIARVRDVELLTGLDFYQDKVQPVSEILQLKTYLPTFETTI
The experiment is described as follows: Inhibition of human recombinant NPP3 expressed in COS-7 cell membrane […] using p-nitrophenyl thymidine monophosphate substrate incubated for 35 mins by spectrophotometric analysis. Format: cell membranes.

The target of experiment [3] is T3, Ectonucleotide pyrophosphatase/phosphodiesterase family member 1 (Homo sapiens) (UniProt P22413).
T3 sequence (whole entry): T1 sequence (P22413 whole entry)
The experiment is described as follows: Inhibition of human recombinant NPP1 expressed in COS-7 cell membrane using p-nitrophenyl thymidine monophosphate substrate incubated for 35 mins by spectrophotometric analysis. The experiment is classed as cell membranes. Further details: concentration or dose not given beside the values.

For experiment [4], the target named is Ectonucleotide pyrophosphatase/phosphodiesterase family member 3 (Homo sapiens) (UniProt O14638). The experiment is described as follows: Inhibition of human recombinant NPP3 expressed in COS-7 cell membrane using p-nitrophenyl thymidine monophosphate substrate incubated for 35 mins by spectrophotometric analysis. Details: concentration or dose not given beside the values.

The target of experiment [5] is T4, Ectonucleotide pyrophosphatase/phosphodiesterase family member 3 (Homo sapiens) (UniProt O14638).
T4 sequence (whole entry): T2 sequence (O14638 whole entry)
The experiment in a line: Potency index, ratio of IC50 for suramin to IC50 for test compound for human recombinant NPP3 expressed in COS-7 cell membrane using p-nitrophenyl thymidine monophosphate substrate incubated for 35 mins by spectrophotometric analysis. Format: cell membranes.

The target of experiment [6] is T3, Ectonucleotide pyrophosphatase/phosphodiesterase family member 1 (Homo sapiens). The experiment in a line: Potency index, ratio of IC50 for suramin to IC50 for test compound for human recombinant NPP1 expressed in COS-7 cell membrane using p-nitrophenyl thymidine monophosphate substrate incubated for 35 mins by spectrophotometric analysis. Format: cell membranes.

In the case of `Cc1nc(-c2ccc(-c3ccc(OCc4ccccc4)cc3)cc2)co1`, the IC50 in experiment [1] is 1440 nM; in experiment [2] it was 1310 nM.
As for `Cc1nc(-c2ccc(-c3ccccc3)cc2)co1`, the inhibition is 46% in experiment [3] and 43% in experiment [4].
On to `Cc1cccc(-c2ccc(-c3coc(C)n3)cc2)c1`, for which the IC50 in experiment [2] is 1700 nM. The inhibition in experiment [3] was found to be 43%.
Take `Cc1ccc(-c2ccc(-c3coc(C)n3)cc2)cc1`: the IC50 is 2560 nM in experiment [1] and 5060 nM in experiment [2].
Consider `Cc1nc(-c2ccc(-c3cccc4ccccc34)cc2)co1`, for which the IC50 came to 2410 nM in experiment [1] and 150 nM in experiment [2].
As for `COc1ccc(-c2ccc(-c3coc(C)n3)cc2)cc1`, the IC50 in experiment [2] came to 170 nM. Also, the inhibition in experiment [3] came to 38%. The Ratio IC50 in experiment [5] turned out to be 5.3.
With `COc1ccc(-c2ccc(-c3coc(-c4ccccc4)n3)cc2)cc1`, the values for the IC50 in experiment [1] and in experiment [2] were 17200 nM and 3730 nM, respectively.
In the case of `CCOc1ccccc1-c1nc(-c2ccc(-c3ccccc3)cc2)co1`, the inhibition was 27% in experiment [3] and 48% in experiment [4].
The corresponding values for `Cc1nc(-c2ccc(-c3ccccc3C)cc2)co1` are 40% and 45%.
For `c1ccc(-c2ccc(-c3coc(-c4ccccc4)n3)cc2)cc1`, in that order: 31% and 49%.
For `c1ccc(-c2ccc(-c3coc(-c4ccccc4-c4ccccc4)n3)cc2)cc1`, in that order: 33% and 47%.
On to `Cc1cccc(-c2ccc(-c3coc(-c4ccccc4)n3)cc2)c1`, for which the inhibition in experiment [3] stood at 48%.
As to `CCOc1ccccc1-c1nc(-c2ccc(-c3ccc(C)cc3)cc2)co1`, the IC50 was 9230 nM in experiment [1] and 11100 nM in experiment [2].
For `c1ccc(-c2nc(-c3ccc(-c4cccc5ccccc45)cc3)co2)cc1`, the values for the inhibition in experiment [3] and in experiment [4] were 44% and 43%, respectively.
As to `Cc1cccc(-c2ccc(-c3coc(-c4ccccc4-c4cccc(C)c4)n3)cc2)c1`, the half-maximal inhibitory concentration (IC50) in experiment [2] is 2210 nM. The inhibition in experiment [3] was determined as 36%.
Turning to `Cc1ccccc1-c1ccc(-c2coc(-c3ccccc3)n2)cc1`, the results for the IC50 in experiment [1] and in experiment [2] were 420 nM and 4230 nM, respectively.
On to `CCOc1ccccc1-c1nc(-c2ccc(-c3cccc4ccccc34)cc2)co1`, for which, in experiment [1], the IC50 worked out at 150 nM. In experiment [6], the Ratio IC50 was found to be 51.8. Besides, the inhibition in experiment [4] amounted to 40%.
